“And” between values parts separate entries of the source, which are not always exact repeats. Equal entries are not always repeated. Inconclusive results and toxic doses are left out. The calls were made as follows: active = survival T/C of 150% or more; inactive = T/C below 125% in these data.
Test system: CD2F1 mice, L1210 leukemia ip, survival T/C
Test: NCI In Vivo Anticancer Drug Screen. Data for tumor model L1210 Leukemia (intraperitoneal) in CD2F1 (CDF1) mice
Settings: higher = longer survival
Summary of the method: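 Each value reflects a quotient of treated over vehicle control outcomes in mice with a transplanted tumor.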

[1] = endpoint: mean survival time, dose: 100.0 mg/kg/injection, schedule: Q04DX003 (ip), vehicle: saline with Tween-80
[2] = endpoint: mean survival time, dose: 200.0 mg/kg/injection, schedule: Q04DX003 (ip), vehicle: saline with Tween-80
[3] = endpoint: mean survival time, dose: 400.0 mg/kg/injection, schedule: Q04DX003 (ip), vehicle: saline with Tween-80
[4] = endpoint: mean survival time, dose: 100.0 mg/kg/injection, schedule: Q01DX009 (ip), vehicle: saline with Tween-80
[5] = endpoint: mean survival time, dose: 200.0 mg/kg/injection, schedule: Q01DX009 (ip), vehicle: saline with Tween-80
[6] = endpoint: mean survival time, dose: 100.0 mg/kg/injection, schedule: Q01DX001 (ip), vehicle: saline with Tween-80
[7] = endpoint: mean survival time, dose: 200.0 mg/kg/injection, schedule: Q01DX001 (ip), vehicle: saline with Tween-80
[8] = endpoint: mean survival time, dose: 400.0 mg/kg/injection, schedule: Q01DX001 (ip), vehicle: saline with Tween-80
[9] = endpoint: mean survival time, dose: 100.0 mg/kg/injection, schedule: Q01DX001 (ip), vehicle: saline
[10] = endpoint: mean survival time, dose: 200.0 mg/kg/injection, schedule: Q01DX001 (ip), vehicle: saline
[11] = endpoint: mean survival time, dose: 400.0 mg/kg/injection, schedule: Q01DX001 (ip), vehicle: saline
[12] = endpoint: mean survival time, dose: 100.0 mg/kg/injection, schedule: Q01DX009 (ip), vehicle: saline
[13] = endpoint: mean survival time, dose: 200.0 mg/kg/injection, schedule: Q01DX009 (ip), vehicle: saline
[14] = endpoint: mean survival time, dose: 400.0 mg/kg/injection, schedule: Q01DX009 (ip), vehicle: saline

Measured: T/C

N#CN(Cc1ccc(Cl)cc1Cl)C(=O)OCOc1ccc(Cl)cc1
inactive: [1] 88 % of control | [2] 89 % of control | [3] 96 % of control

Nc1c(Cl)cccc1C(=O)c1ccccc1C(=O)O
inactive: [4] 97 % of control | [1] 101 % of control | [5] 95 % of control | [2] 101 % of control | endpoint: mean survival time, dose: 400.0 mg/kg/injection, schedule: Q01DX009 (ip), vehicle: saline with Tween-80 101 % of control | [3] 103 % of control

Cc1cc(N)nc2ccccc12
inactive: endpoint: mean survival time, dose: 3.12 mg/kg/injection, schedule: Q04DX002 (ip), vehicle: saline with Tween-80 101 % of control | endpoint: mean survival time, dose: 6.25 mg/kg/injection, schedule: Q04DX002 (ip), vehicle: saline with Tween-80 105 % of control | endpoint: mean survival time, dose: 12.5 mg/kg/injection, schedule: Q04DX002 (ip), vehicle: saline with Tween-80 94 % of control and 101 % of control

CS(=O)(=O)OC1CCS(=O)(=O)c2ccccc21 (centres undefined)
inactive: endpoint: mean survival time, dose: 100.0 mg/kg/injection, schedule: Q01DX001 (ip), vehicle: carboxymethylcellulose (CMC) 97 % of control | endpoint: mean survival time, dose: 200.0 mg/kg/injection, schedule: Q01DX001 (ip), vehicle: carboxymethylcellulose (CMC) 97 % of control | endpoint: mean survival time, dose: 400.0 mg/kg/injection, schedule: Q01DX001 (ip), vehicle: carboxymethylcellulose (CMC) 97 % of control

CCCn1c(O)c(C=N)c(=O)[nH]c1=O
inactive: [4] 101 % of control | [1] 91 % of control | [5] 111 % of control | [2] 92 % of control | [3] 94 % of control

O=C(O)CC(NC(=O)CP(=O)(O)O)C(=O)O.[NH-]C1CCCCC1[NH-].[Pt+2] (centres undefined)
inactive: endpoint: mean survival time, dose: 7.9 mg/kg/injection, schedule: Q04DX003 (ip), vehicle: saline 122 % of control | endpoint: mean survival time, dose: 12.5 mg/kg/injection, schedule: Q01DX009 (ip), vehicle: dextrose 92 % of control
active: endpoint: mean survival time, dose: 3.12 mg/kg/injection, schedule: Q01DX009 (ip), vehicle: dextrose 238 % of control | endpoint: mean survival time, dose: 6.25 mg/kg/injection, schedule: Q01DX009 (ip), vehicle: dextrose 274 % of control | endpoint: mean survival time, dose: 8.0 mg/kg/injection, schedule: Q04DX003 (ip), vehicle: dextrose 231 % of control | endpoint: mean survival time, dose: 11.9 mg/kg/injection, schedule: Q04DX003 (ip), vehicle: dextrose 280 % of control | endpoint: mean survival time, dose: 12.0 mg/kg/injection, schedule: Q04DX003 (ip), vehicle: dextrose 174 % of control | endpoint: mean survival time, dose: 17.89 mg/kg/injection, schedule: Q04DX003 (ip), vehicle: dextrose 237 % of control | endpoint: mean survival time, dose: 18.0 mg/kg/injection, schedule: Q04DX003 (ip), vehicle: dextrose 225 % of control | endpoint: mean survival time, dose: 26.7 mg/kg/injection, schedule: Q04DX003 (ip), vehicle: dextrose 184 % of control | endpoint: mean survival time, dose: 26.7 mg/kg/injection, schedule: Q04DX003 (ip), vehicle: saline 260 % of control | endpoint: mean survival time, dose: 40.0 mg/kg/injection, schedule: Q04DX003 (ip), vehicle: dextrose 265 % of control | endpoint: mean survival time, dose: 40.0 mg/kg/injection, schedule: Q04DX003 (ip), vehicle: saline 298 % of control | endpoint: mean survival time, dose: 60.0 mg/kg/injection, schedule: Q04DX003 (ip), vehicle: dextrose 194 % of control | endpoint: mean survival time, dose: 60.0 mg/kg/injection, schedule: Q04DX003 (ip), vehicle: saline 306 % of control | endpoint: mean survival time, dose: 90.0 mg/kg/injection, schedule: Q04DX003 (ip), vehicle: dextrose 169 % of control | endpoint: median survival time, dose: 2.0 mg/kg/injection, schedule: Q01DX009 (ip), vehicle: dextrose 209 % of control | endpoint: median survival time, dose: 4.0 mg/kg/injection, schedule: Q01DX009 (ip), vehicle: dextrose 262 % of control | endpoint: median survival time, dose: 9.0 mg/kg/injection, schedule: Q01DX009 (ip), vehicle: dextrose 177 % of control | endpoint: median survival time, dose: 10.0 mg/kg/injection, schedule: Q01DX001 (ip), vehicle: dextrose 182 % of control | endpoint: median survival time, dose: 15.0 mg/kg/injection, schedule: Q01DX001 (ip), vehicle: other 201 % of control | endpoint: median survival time, dose: 17.98 mg/kg/injection, schedule: Q04DX003 (ip), vehicle: dextrose 208 % of control | endpoint: median survival time, dose: 20.0 mg/kg/injection, schedule: Q01DX001 (ip), vehicle: dextrose 206 % of control | endpoint: median survival time, dose: 27.0 mg/kg/injection, schedule: Q04DX003 (ip), vehicle: dextrose 220 % of control | endpoint: median survival time, dose: 30.0 mg/kg/injection, schedule: Q01DX001 (ip), vehicle: other 681 % of control | endpoint: median survival time, dose: 40.0 mg/kg/injection, schedule: Q01DX001 (ip), vehicle: dextrose 188 % of control

CC(=O)COc1cc(C)cc(C)c1
inactive: [6] 104 % of control | [7] 95 % of control | [8] 101 % of control

Cc1c2ccccc2c(CN2CC(O)CC2C(=O)O)c2ccc3ccccc3c12 (centres undefined)
inactive: [1] 102 % of control | [2] 100 % of control | [3] 87 % of control

CN(CCSSCCN(C)/N=C/c1ccccc1)/N=C/c1ccccc1
inactive: [1] 97 % of control | [2] 101 % of control | [3] 101 % of control

C=CC/C=C/CCCCCC
inactive: endpoint: mean survival time, dose: 50.0 mg/kg/injection, schedule: Q01DX009 (ip), vehicle: saline with Tween-80 114 % of control | [4] 96 % of control | [5] 107 % of control

COc1ccc(C(=O)c2cccc3c2-c2ccccc2C3(c2ccc(OC)c(C)c2)c2ccc(OC)c(C)c2)cc1C
inactive: endpoint: mean survival time, dose: 5.0 mg/kg/injection, schedule: Q01DX001 (ip), vehicle: other 96 % of control | endpoint: mean survival time, dose: 10.0 mg/kg/injection, schedule: Q01DX001 (ip), vehicle: other 88 % of control | endpoint: mean survival time, dose: 40.0 mg/kg/injection, schedule: Q01DX001 (ip), vehicle: other 86 % of control | endpoint: mean survival time, dose: 80.0 mg/kg/injection, schedule: Q01DX001 (ip), vehicle: other 91 % of control

OCCOc1ccc2ccccc2c1-c1c(OCCOc2ccc3ccccc3c2-c2c(OCCO)ccc3ccccc23)ccc2ccccc12
inactive: endpoint: mean survival time, dose: 25.0 mg/kg/injection, schedule: Q01DX001 (ip), vehicle: saline with Tween-80 95 % of control | endpoint: mean survival time, dose: 50.0 mg/kg/injection, schedule: Q01DX001 (ip), vehicle: saline with Tween-80 91 % of control | [6] 86 % of control | [8] 86 % of control

CCCOC(=O)c1ccc(N)cc1
inactive: [6] 102 % of control | [7] 104 % of control | [8] 103 % of control

COC1CCCC[CH]1[Hg][Br] (centres undefined)
inactive: endpoint: mean survival time, dose: 3.13 mg/kg/injection, schedule: Q01DX009 (ip), vehicle: saline with Tween-80 102 % of control

Nc1ccn(C2CC(O)C(CO)C2)c(=O)n1 (centres undefined)
inactive: [9] 100 % of control | [10] 105 % of control | [11] 97 % of control

O=[N+]([O-])O.[Ho]
inactive: [12] 94 % of control

CC(=O)C(C(C)=O)C(c1ccccn1)C(C(C)=O)C(C)=O
inactive: [1] 106 % of control | [2] 98 % of control | [3] 93 % of control

O=C(O)CC1NCCC12OCCO2 (centres undefined)
inactive: [9] 97 % of control | [12] 98 % of control | [10] 102 % of control | [13] 98 % of control | [11] 92 % of control | [14] 101 % of control

O=C(O)C1(c2ccccc2)CC1
inactive: endpoint: mean survival time, dose: 100.0 mg/kg/injection, schedule: Q01DX009 (ip), vehicle: saline sonified 88 % of control | [1] 97 % of control | endpoint: mean survival time, dose: 200.0 mg/kg/injection, schedule: Q01DX009 (ip), vehicle: saline sonified 92 % of control | [2] 97 % of control | endpoint: mean survival time, dose: 400.0 mg/kg/injection, schedule: Q01DX009 (ip), vehicle: saline sonified 94 % of control | [3] 110 % of control

CC(C(=O)O)C1CCC2C3CC=C4CC(O)CCC4(C)C3CCC12C (centres undefined)
inactive: [1] 99 % of control | [2] 100 % of control | [3] 100 % of control

Clc1cccc(-n2ccnc2)c1
inactive: [4] 109 % of control | [5] 113 % of control

CC(C)C(N)C(=O)Nc1nncs1 (centres undefined)
inactive: endpoint: mean survival time, dose: 25.0 mg/kg/injection, schedule: Q01DX009 (ip), vehicle: saline 103 % of control | endpoint: mean survival time, dose: 50.0 mg/kg/injection, schedule: Q01DX009 (ip), vehicle: saline 110 % of control | [13] 117 % of control and 97 % of control | [14] 89 % of control and 90 % of control | endpoint: median survival time, dose: 12.5 mg/kg/injection, schedule: Q01DX009 (ip), vehicle: saline 94 % of control | endpoint: median survival time, dose: 25.0 mg/kg/injection, schedule: Q01DX009 (ip), vehicle: saline 109 % of control and 112 % of control | endpoint: median survival time, dose: 400.0 mg/kg/injection, schedule: Q01DX009 (ip), vehicle: saline 95 % of control
active: [12] 166 % of control | endpoint: median survival time, dose: 50.0 mg/kg/injection, schedule: Q01DX009 (ip), vehicle: saline 151 % of control | endpoint: median survival time, dose: 100.0 mg/kg/injection, schedule: Q01DX009 (ip), vehicle: saline 158 % of control

Reference: PubChem BioAssay AID256 (DTP/NCI, 2004)
